From patent publication US20240415793A1, “Neuroprotective composition comprising pyruvate and citrate” (N.V. Nutricia, priority 2022, published 2024)

System: primary mouse neuroglial cultures
Experiment: Cell death by high content imaging (Hoechst/NeuN nuclear shrinkage) after chronic hyperstimulation
Format: cell-based
Details: 1 mM
Procedure: To determine whether pyruvate and citrate protect neurons and glial cells from cell death induced by chronic electrical hyperstimulation. To assess protection from cell death induced by repeated hyperstimulation, primary mouse neuroglial cultures were assayed. Neuroglial cell cultures were prepared and grown until DIV14 as described above. From DIV14 until DIV17 they were switched to NBM containing B27, low (2.5 mM) glucose, and low (0.1 mM) Mg^2+ or high (0.8 mM) Mg^2+. Incubation in low (0.1 mM) Mg^2+ medium increases the neuronal firing rates, thus creating a state of chronic hyperstimulation. The test nutrients (pyruvate or citrate) were supplied through the medium from DIV14 until DIV17. On DIV17, the cell nuclei were stained with the Hoechst dye and co-immunolabelled for NeuN, a protein found only in the nuclei of neurons. The neuronal and non-neuronal cell nuclei were scored for nuclear shrinkage, a hallmark of cell death, by high content imaging.
To assess cell death by high content imaging the cells were fixed on DIV17 in 1% formaldehyde, permeabilized with ethanol and incubated with a rabbit polyclonal IgG antibody against NeuN, a neuron-specific protein localized to the nucleus, followed by detection with a secondary anti-rabbit IgG antibody linked to a red fluorescent label. Neuronal and non-neuronal cell nuclei were then counterstained with the blue fluorescent nuclear dye Hoechst. The nuclei were counted by a high content imager based on signal intensity and size. A cut-off value was applied to exclude objects of low signal intensity considered noise. Then, cut-off values were applied to exclude objects with an area below 30 μM^2 considered cell debris and objects with an area above 300 μM^2 considered cell clumps. A boundary of 60 μM^2 was set to distinguish between nuclei from alive and dead cells. Objects areas of 30 μM^2 to 60 μM^2 were counted as nuclei from dead cells, while object areas of 60 μM^2 to 300 μM^2 were counted as nuclei from alive cells. The counting was done at 20-fold magnification on a fixed number of optical fields per well. The counts of nuclei from dead neurons or dead cells were related to the number of alive neurons or alive cells, respectively, in the same well.
Neuroglial cell cultures were supplemented with 1 mM citrate from DIV14 until DIV17. On DIV17, total cell death and neuron-specific cell death were quantified by high content imaging. The total number of Hoechst positive objects or NeuN positive objects prior to applying cut-off values for the signal intensity and the area size was equal between the different groups (FIG. 10 A, D).

## O=C(O)CC(O)(CC(=O)O)C(=O)O [citrate]
DIV14-DIV17, chronic hyperstimulation, FIG. 10C/11C
  increase in dead cell counts from high Mg2+ to low Mg2+ medium: ~4%
DIV14-DIV17, high (0.8 mM) Mg2+ medium, FIG. 10C/11C
  dead cell counts: ~19%
DIV14-DIV17, high Mg2+ medium, FIG. 10F/11F
  dead neuron count (neuron death): −1.5%
DIV14-DIV17, low (0.1 mM) Mg2+ medium, FIG. 10C/11C
  dead cell counts: ~23%
DIV14-DIV17, low Mg2+ medium, FIG. 10F/11F
  dead neuron count (neuron death): ~1.4%
DIV14-DIV17, FIG. 10B/11B
  effect on alive cell count: not impacting
DIV14-DIV17, FIG. 10F/11F
  effect on rise in neuron death induced by chronic hyperstimulation: entirely blocked
